Data set [1] can be described thus: Property of feces in rats fed test ration, 2 or more bacteria (Reference Example 2). It counts as in vivo, Jcl:SD rats. The following applies: 36 to 48 hours. Here is the method: Using 2 or more different bacteria, test rations were prepared by the same procedure as Reference Example 1. However, the amount of potato starch was reduced to adjust for the volume increase due to the cells to provide a composition containing cells of AO-128 and the composition was mixed with feed. The resulting ration was given to 7-week-old Jcl:SD rats (5 animals per group) and the property of feces after 36 to 48 hours was observed. Control rats received a mixture of 10 mg of AO-128 and 100 g of powder feed.

Data set [2] in a line: Property of feces in rats fed test ration, single organism (Reference Example 1). The class given is in vivo, male Jcl:SD rats. The settings on record: 36 to 48 hours. Here is the method:
One gram of the mixture prepared in Example 1 and one gram of cells of lactic acid producing bacteria of a kind different from the bacteria used in Example 1 were mixed with 99 g of commercial powder feed (CE-2) to give a test ration. This ration was given to male Jcl:SD rats aged 7 weeks (6 animals per group) and the property of feces excreted after 36 to 48 hours was examined. Control animals received a mixture of 10 mg of AO-128 and 100 g of 'powder feed.

Data set [3] in a line: 28-day feeding of rats with Zucker obesity (Reference Example 4). The class given is in vivo, male rats with Zucker obesity. The settings on record: ration fed for 28 days. The protocol:
In the analysis for body fat, the liver, the adipose tissue of the epididymis, the digestive tract and its contents were removed and the remainder was used as a sample. The rations containing the bacterial cells were prepared every other day and fed.

Data set [4] is described as follows: Influence on dietary hyperglycemia and hyperinsulinemia (Reference Example 3). The class given is in vivo, male Jcl:SD rats. The following applies: mean ± SD, n=6. Here is the method:
The rations prepared in the same manner as Reference Example 1 were given to 8-week-old male Jcl:SD rats (6 individuals per group) which had not been fed for 24 hours to investigate how the administration of lactic acid producing bacteria would influence the inhibitory effect of AO-128 on the hyperglycemia and hyperinsuleinemia following a diet intake.
Blood samples were collected from the tail vein immediately before feeding and 30, 60 and 120 minutes after feeding and the plasma glucose and insulin levels were determined.

The nature of data set [5]: Acute toxicity study. It counts as in vivo, rats. The following applies: oral administration, 10 g/kg body weight. An excerpt:
When this was mixed with 10^11 cells of any of the 3 different lactic acid producing bacteria used in the present invention and the mixture was orally administered at the same time as AO-128 (10 g/kg body weight), no influence was observed.

The structures appear in SMILES notation. Marks after values point to notes of the source that are not given here.

For the compound `OCC(CO)N[C@H]1C[C@](O)(CO)[C@@H](O)[C@H](O)[C@H]1O` [AO-128, N-(1,3-Dihydroxy-2-propyl)valiolamine], the “Property of feces ±” value in data set [1] (number of rats (5 per group) with fecal masses, diffusion of water on filter paper) was 2; in data set [2] (number of rats (6 per group) with fecal masses, a diffusion of water noted on filter paper), 0. In addition, the “Property of feces -” value is on record as 0 in data set [1] (number of rats (5 per group) with fecal masses, no diffusion of water on filter paper) and 0 in data set [2] (number of rats (6 per group) with fecal masses, no diffusion of water on filter paper). Also, the “Property of feces +” value in data set [1] (number of rats (5 per group) with feces unformed (watery stool)) is 3; in data set [2] (number of rats (6 per group) with feces unformed (watery stool)) it was 6. For the same compound, the diarrhea in data set [3] (animals with diarrhea / animals in group) is listed as 6/6. The body fat in data set [3] (carcass without liver, epididymal adipose tissue, digestive tract, n=6) is recorded as 19.8±5.4^b %. In data set [3] (mean ± SD, n=6), the body weight gain is recorded as 132±28^a g/28day. Also, the food consumption in data set [3] (mean ± SD, n=6) is listed as 602±56^a g/28day. The food conversion in data set [3] (mean ± SD, n=6) is recorded as 21.9±3.6^b %. For the same compound, the “Plasma glucose level 30 min.” value in data set [4] (30 minutes after feeding) is 141± 8^a mg/dl. Further, in data set [4] (60 minutes after feeding), the “Plasma glucose level 60 min.” value is recorded as 154±11^a mg/dl. Further, the “Plasma glucose level 120 min.” value in data set [4] (120 minutes after feeding) is recorded as 152±11^a mg/dl. Further, the “Plasma glucose level 0 min.” value in data set [4] (immediately before feeding, rats not fed for 24 hours) was 101 ± 10 mg/dL. For the same compound, in data set [5], the “death in acute toxicity study” value is “caused no death”.

Source of the values: patent EP0194794A2, “Saccharide digestion inhibiting composition” (Takeda Chemical Industries, Ltd., priority 1985, dated 1986).
